The target of series [1] is T1, CYP83A1 (Arabidopsis thaliana, UniProt P48421).
T1 sequence (P48421 1-502): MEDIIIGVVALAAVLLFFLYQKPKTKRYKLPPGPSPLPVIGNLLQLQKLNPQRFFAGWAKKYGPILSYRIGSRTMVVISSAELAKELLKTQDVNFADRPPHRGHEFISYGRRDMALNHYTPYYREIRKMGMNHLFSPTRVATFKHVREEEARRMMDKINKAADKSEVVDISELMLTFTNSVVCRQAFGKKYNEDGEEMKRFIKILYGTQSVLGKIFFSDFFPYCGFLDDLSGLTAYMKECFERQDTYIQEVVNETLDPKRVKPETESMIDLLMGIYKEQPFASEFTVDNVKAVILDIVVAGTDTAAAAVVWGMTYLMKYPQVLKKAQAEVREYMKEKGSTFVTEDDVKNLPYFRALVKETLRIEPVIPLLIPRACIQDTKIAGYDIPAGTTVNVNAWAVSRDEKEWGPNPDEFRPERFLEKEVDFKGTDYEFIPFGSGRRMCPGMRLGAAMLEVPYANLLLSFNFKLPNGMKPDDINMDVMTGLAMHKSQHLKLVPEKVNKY
The series can be described thus: biochemical. Conditions: for Relative affinity for ligand binding, from amplitudes of type II spectra / Type II spectrum (ligand binding to active site): CYP83A1, 200 μM ligand. An excerpt: (§1) FIG. 6 is a spectral characterization of CYP83A1 and CYP83B1. […] 1) tryptamine, 2) β-phenylethylamine, 3) tyramine, 4) n-octylamine, 5) 5-OH-tryptamine, 6) 3-OH-tyramine, B) baseline.
(§2) To compensate for ligand absorbance, the experimental data were fitted to a hyperbolic curve using the equation A=Amax*X/(Ks+X)+C*X, where A is the amplitude of the spectra, X the concentration of ligand, and C the contribution from ligand absorbance. The computed regression curve is shown as well as the experimental data points.
(§3) Microsomes from yeast WAT11 cells expressing the CYP83A1 and CYP83B1 cDNA using the pYeDP60 vector were isolated and the amount of functional enzyme quantified essentially according to Pompon et al. (1996) Methods Enzymol. 272:51-64. […] 13:101-111 and references therein. Vmax and Km were determined as previously described using 2.2 nM of CYP83A1 or CYP83B1 and 50 mM L-cysteine as thiol donor (Bak et al. (2001) Plant Cell. 13:101-111). […] Vmax, Km, and Ks were calculated using SigmaPlot 5.0 (SPSS Inc.). For analysis of CYP83B1 activity in the presence or absence of thiol donors, recombinant CYP83B1 was reconstituted and analyzed as previously described (Bak et al. (2001) Plant Cell. 13:101-111).
(§4) To characterize the topology of the active sites of […] and CYP83B 1, we have taken advantage of the ability of nitrogen-containing ligands like primary amines to produce type II spectra with cytochrome P450 enzymes by binding to the active site bringing the electron lone pairs of the amine group in close vicinity to the heme iron (Jefcoate C. R. (1978) Methods Enzymol 27:258-279). This gives rise to a characteristic spectrum with a trough around 390 nm and a peak around 425 nm.
(§5) By titrating the amplitude of the type II difference spectra with increasing concentrations of ligand, Ks values were determined for tryptamine and β-phenylethylamine (FIG. 7).

The target of series [2] is T2, CYP83B1 (Arabidopsis thaliana, UniProt O65782).
T2 sequence (O65782 1-499): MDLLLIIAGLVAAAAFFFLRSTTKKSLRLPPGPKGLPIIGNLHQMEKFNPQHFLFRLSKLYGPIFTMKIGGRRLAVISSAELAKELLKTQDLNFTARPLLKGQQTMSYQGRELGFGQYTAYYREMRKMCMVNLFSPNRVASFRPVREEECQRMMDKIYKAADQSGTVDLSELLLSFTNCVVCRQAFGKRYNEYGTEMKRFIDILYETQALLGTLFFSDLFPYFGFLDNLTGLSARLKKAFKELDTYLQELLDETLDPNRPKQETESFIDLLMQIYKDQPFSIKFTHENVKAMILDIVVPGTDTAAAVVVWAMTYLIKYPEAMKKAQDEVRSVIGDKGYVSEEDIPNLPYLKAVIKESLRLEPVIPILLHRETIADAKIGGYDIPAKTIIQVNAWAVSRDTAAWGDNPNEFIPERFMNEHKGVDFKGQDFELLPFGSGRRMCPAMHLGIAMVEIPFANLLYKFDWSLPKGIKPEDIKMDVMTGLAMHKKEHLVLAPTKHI
Kind of series: biochemical. Conditions: for Relative affinity for ligand binding, from amplitudes of type II spectra / Type II spectrum (ligand binding to active site): CYP83B1, 200 μM ligand.
Excerpt: as §1, §2, §3, §4, §5

The target in series [3] is T2, CYP83B1. Kind of series: Kinetics of indole-3-acetaldoxime metabolism by recombinant enzyme in yeast microsomes. As for the experimental part: Computed regression curves as well as the experimental data points are shown. The correlation coefficients (R^2) for CYP83B1 and CYP83A1 regression analyses are 0.985 and 0.999, respectively.
as §3

The target in series [4] is T1, CYP83A1. Kind of series: Reconstitution with oximes, turnover numbers by GC-MS. Format: biochemical. Set-up: made in house; host or cells: yeast WAT11 cells, pYeDP60 vector; microsomes. Conditions: CYP83A1 0.5 μM, 1 mM substrate, β-mercaptoethanol thiol donor, 20 min at 28° C. How it is done:
(§6) Turnover numbers were calculated based on the relative areas under the substrate and product peaks. Silylated substrates and products were identified by their fragmentation pattern in both electron impact mode and chemical ionization mode.
(§7) Reconstitution experiments were also conducted to compare the ability of CYP83A1 and CYP83B1 to metabolize other oximes. The putative substrates tested were p-hydroxyphenylacetaldoxime derived from tyrosine and phenylacetaldoxime derived from phenylalanine. In all studies, β-mercaptoethanol was the thiol donor. […] Conversely, the turnover of p-hydroxyphenylacetaldoxime was higher using CYP83A1 compared to CYP83B 1. Phenylacetaldoxime was identified as a substrate for CYP83A1 as well as for CYP83B1 but the turnover numbers were low (Table 1).

In series [5] the target is T2, CYP83B1. Described as above. Format: biochemical. The arrangement: made in house; host or cells: yeast WAT11 cells, pYeDP60 vector; microsomes. Conditions: CYP83B1 0.5 μM, 1 mM substrate, β-mercaptoethanol thiol donor, 20 min at 28° C. How it is done:
as §6, §7

Series [6] addresses T2, CYP83B1. The arrangement: made in house; host or cells: yeast WAT11 cells, pYeDP60 vector; microsomes. To be noted: cited from earlier work.
The next series has as its system ON=CCc1c[nH]c2ccccc12. The series can be described thus: cells, lysate or membranes named. To be noted: other: CYP83A1 in yeast microsomes, 2.2 nM enzyme, 50 mM L-cysteine as thiol donor.
Substrate in series [7]: ON=CCc1c[nH]c2ccccc12
Kind of series: cells, lysate or membranes named. To be noted: other: CYP83B1 in yeast microsomes, 2.2 nM enzyme, 50 mM L-cysteine as thiol donor.

This is an account of results in US20050223431A1, “Methods of modulating glucosinolate production in plants” (The Arizona Board of Regents on Behalf of the University of …, priority 2000, published 2005).

On to `CCCCCCCCN` [n-octylamine], for which, on CYP83A1 [1], the “Relative affinity for ligand binding, from amplitudes of type II spectra” value (“Relative affinity for ligand binding” for short) is “n-octylamine>>α-phenylethylamine=tryptarine>tyramine” and the “Type II spectrum (ligand binding to active site)” value (from here on “Type II spectrum”) is recorded as “type II spectra were observed”. In addition, on CYP83B1 [2], the “Relative affinity for ligand binding” value is reported as “tryptamine >>β-phenylethylanine>n-octylamine>tyramine” and the “Type II spectrum” value is listed as “type II spectra were observed”.
Regarding `N#CCc1c[nH]c2ccccc12` [Indole-3-acetonitrile], the “Type II spectrum” value on CYP83A1 [1] and on CYP83B1 [2] was “did not produce a type II spectrum” throughout.
In the case of `ON=CCc1c[nH]c2ccccc12` [indole-3-acetaldoxime], the “Fold higher catalytic efficiency (Vmax/Km), CYP83B1 compared to CYP83A1” value on CYP83B1 [3] (indole-3-acetaldoxime as substrate) amounted to 20 fold. For the same molecule, the “Fold difference in Km / affinity, CYP83B1 versus CYP83A1” value at CYP83B1 [3] (indole-3-acetaldoxime, higher affinity (lower Km) for CYP83B1) was 50 fold. In addition, the results for the “Turnover, indole-3-acetaldoxime” value at CYP83A1 [4] and on CYP83B1 [5] were 10 min⁻¹ and 26 min⁻¹, respectively.
The term Kd denotes a measure of binding affinity in units of concentration. Read a high Kd as a looser complex. Turning to `NCCc1c[nH]c2ccccc12` [tryptamine], on CYP83A1 [1], the affinity, expressed as Kd, was 240 ± 180 µM and the “Relative affinity for ligand binding” value was “n-octylamine>>α-phenylethylamine=tryptarine>tyramine”. Moreover, at CYP83B1 [2], the Kd worked out at 18 ± 5 µM and the “Relative affinity for ligand binding” value was “tryptamine >>β-phenylethylanine>n-octylamine>tyramine”. At CYP83B1 [2] (from Ks values), the “Fold stronger binding to CYP83B1 compared to CYP83A1” value is 13 fold and the “Fold stronger ligand for CYP83B1 compared to β-phenylethylamine” value worked out at 30 fold. For the same molecule, the “Inhibition of metabolism of indole-3-acetaldoxime” value on CYP83B1 [6] is given as “inhibits metabolism of indole-3-acetaldoxime”.
As for `ON=CCc1ccc(O)cc1` [p-hydroxyphenylacetaldoxime], the Turnover p-hydroxyphenylacetaldoxime at CYP83A1 [4] is 25 min⁻¹; at CYP83B1 [5], 9.8 min⁻¹.
Broadly, the Km is the concentration of substrate that gives half-maximal velocity. By kcat is commonly meant the maximal rate divided by the concentration of active sites. In the case of CYP83A1 (Arabidopsis thaliana), in the series on ON=CCc1c[nH]c2ccccc12, the Michaelis constant (Km) stood at 150 ± 15 µM and the kcat turned out to be 2.33 ± 0.167 s⁻¹.
With `ON=CCc1ccccc1` [phenylethylacetaldoxime, phenylacetaldoxime], the Turnover phenylethylacetaldoxime on CYP83A1 [4] amounted to 7.2 min⁻¹; on CYP83B1 [5], 15 min⁻¹.
With `NCCc1c[nH]c2ccc(O)cc12` [5-OH-tryptamine], the “Type II spectrum” value at CYP83A1 [1] and on CYP83B1 [2] was “abolished binding” throughout.
In the case of `NCCc1ccccc1` [β-phenylethylamine], on CYP83A1 [1], the Kd came to 390 ± 70 µM; the “Relative affinity for ligand binding” value is given as “n-octylamine>>α-phenylethylamine=tryptarine>tyramine”; the “Type II spectrum” value is recorded as “type II spectra were observed”. Besides, on CYP83B1 [2], the equilibrium dissociation constant (Kd) came to 540 ± 180 µM; the “Relative affinity for ligand binding” value was “tryptamine >>β-phenylethylanine>n-octylamine>tyramine”; the “Type II spectrum” value is listed as “type II spectra were observed”.

B1: CYP83B1 (Arabidopsis thaliana) (protein)
chain: T2 sequence (O65782 1-499)
In the case of B1, the Km in series [7] stood at 3.1 ± 0.4 µM.
